Patent US6723680B2, “Composition for regulation of gametophytic self-incompatibility, control method of gametophytic self-incompatibility of a plant and the plant self-pollinated by using said control method” (Istech Co., Ltd., priority 2000, dated 2004)
Read-outs that look alike come from different tables or passages of the source.

Legend:
Format in all cases: in vivo
[1] = tested on: wild-type tomato; test: Fruition rate of wild-type tomato according to blooming period of treatment; details: 1 mM
Experimental: To test the effect of a style-specific RNase inhibitor in a practical cultivating environment, the style-specific RNase of the present invention was treated to the wild-type tomato that was cultivated in a greenhouse for research (located in Taegu Catholic University, Kyungsan city, Kyungsangpukdo, Republic of korea). In the present invention, the experiment was performed under the environmental condition that can keep the wild-type tomato, a representative plant having gametophytic self-incompatibility, a single species genetically.
To determine the treatment period of a style-specific RNase inhibitor, the inhibitor was treated at the early blooming period (budding formation period˜prior to fill blooming), the middle blooming period (full blooming) and the late blooming period (1 day after full blooming˜falling period of petal) respectively. The inhibitors, ZnSO4 and CuSO4 were then added with 1 mM (about 288 ppm) and 1 mM (about 250 ppm) respectively at 9˜11 a.m., when pollination of plant occurs most actively. Fruition rate was investigated, and the results of 4 times repeated experiments for 25 blooming periods (reproductive organ containing a stamen, a stigma, a petal, etc.) in each experiment were shown in Table 3 with the statistic value.

[2] = tested on: Fuji apple; details: for Fruition rate: siloxane spreader 0.0335%, 4 days before full blooming; for concentration in which harmful effect of a medicine occurred: in vivo
Experimental: To investigate the fruition rate and harmful effect of a medicine according to the concentration of style-specific RNase inhibitors, ZnSO4 and CuSO4, style-specific RNase inhibitors of the present invention, were treated to Fuji apple with various concentration in 4 days before full blooming.
Furthermore, to maximize the efficiency of the style-specific RNase inhibitor of the present invention as fruition control agents, ZnSO4 or CuSO4 was mixed with the spreader of siloxane class (brand name silhouette, Dongbu precision chemical company, Korea) at 0.0335%, and treated to the Fuji apple.

[3] = tested on: wild-type tomato and Fuji apple; details: for the highest concentration not showing harmful effects of a medicine: in vivo; for the lowest concentration showing inhibiting effect: treated at the early blooming period
Experimental: Moreover, to investigate preferable concentration of treatment of the regulation composition for gametophytic self-incompatibility of the present invention, […] ppm CuSO4 and ZnSO4 were treated to wild-type tomato and Fuji apple at the early blooming period and the harmful effects of a medicine and fruition rates were investigated (see FIGS. 6 and 7). Since absorption rate of the regulation composition for gametophytic self-incompatibility of the present invention can be increased by treating it with a spreader in cultivating fruit trees, the CuSO4 and ZnSO4 were treated with a spreader by a method of spraying on the fruit trees at a specific period, that is, the early blooming period. Thus, it was shown that fruits and plants that are pollinated by self-pollen could be acquired by the treatment of a specific concentration of CuSO4 and ZnSO4 in wild-type tomato and Fuji apple without harmful effects of the medicine. From the results, it can be concluded that an inhibitor composition of a style-specific RNase of the present invention is effective in inhibition of a style-specific RNase without respect to species, and preferable concentration of CuSO4, which is treated at the early blooming period, is at 100˜700 ppm and preferable concentration of ZnSO4 is at 100˜800 ppm. Furthermore, very high pollination rate, without harmful effects of a medicine, could be achieved by spraying the inhibitor composition for gametophytic self-incompatibility of the present invention, which was mixed with the desirable amount of spreader according to the manufacturers' instruction. Among the spreaders, the spreader of hexaconazole class, siloxane class and alkylaryl polyethoxylate class is preferable to achieve high fruition rate. The preferable concentration of the inhibitor composition for gametophytic self-incompatibility of the present invention was shown in table 1. When CuSO4 is used as an effective component of the style-specific RNase inhibitor as shown in the table 1, if the concentration of CuSO4 is below 100 ppm, it is difficult to achieve a stable fruition rate over 70% because it cannot inhibit RNase activity appropriately, on the other hand, if the concentration of CuSO4 is over 700 ppm, it is not economical because it can induce harmful effects of a medicine. Furthermore, when ZnSO4 is used as an effective component of the style-specific RNase inhibitor, if the concentration of ZnSO4 is below 100 ppm, it is difficult to achieve a stable fruition rate over 70% because it cannot inhibit RNase activity appropriately, on the other hand, if the concentration of ZnSO4 is over 800 ppm, it is not economical because it can induce harmful effects of a medicine.

[4] = tested on: wild-type tomato; details: for Fruition rate: siloxane spreader 0.0335%, 4 days before full blooming; for concentration in which harmful effect of a medicine occurred: in vivo
Experimental: To investigate the fruition rate and harmful effects of a medicine according to the concentration of style-specific RNase inhibitors, ZnSO4 and CuSO4, style-specific RNase inhibitors of the present invention, were treated to wild-type tomato with various concentration in 4 days before full blooming.
Furthermore, to maximize the efficiency of the style-specific RNase inhibitor of the present invention as fruition control agents, ZnSO4 or CuSO4 was mixed with spreader of hexaconazole, siloxane and alkylaryl polyethoxylate class according to most appropriate usage amount by the manufacturer, and treated.
A composition mixed with the spreader of siloxane class (brand name:silhouette, Dongbu precision chemical company, Korea) to 0.0335% was prepared and the composition was treated to wild-type tomato.

Question: Which results are given for `O=S(=O)([O-])[O-].[Zn+2]` [ZnSO4]?
Answer: Fruition rate ([1]; 1 day after full blooming): 0; Fruition rate ([1]; 1 day before blooming): 0; Fruition rate ([1]; 2 days after full blooming): 0; Fruition rate ([1]; 2 days before blooming): 0; Fruition rate ([1]; 3 days before blooming): >30%; Fruition rate ([1]; 4 days before blooming): >71%; Fruition rate ([1]; 5 days before blooming): >83%; Fruition rate ([1]; 6 days before blooming): >90%; Fruition rate ([1]; 7 days before blooming): >92%; Fruition rate ([1]; full blooming): 0; Fruition rate ([2]; 20 ppm): 0%; Fruition rate ([2]; 40 ppm): 5%; Fruition rate ([2]; 60 ppm): 17%; Fruition rate ([2]; 80 ppm): 36%; Fruition rate ([2]; 100 ppm): 72%; Fruition rate ([2]; 200 ppm): 79%; Fruition rate ([2]; 300 ppm): 93%; Fruition rate ([2]; 400 ppm): 88%; Fruition rate ([2]; 500 ppm): 85%; Fruition rate ([2]; 600 ppm): 84%; Fruition rate ([2]; 700 ppm): 74%; Fruition rate ([2]; 800 ppm): 70%; Fruition rate ([2]; 900 ppm): 44%; Fruition rate ([2]; 1000 ppm): 27%; Fruition rate ([2]; 1100 ppm): 9%; Fruition rate ([2]; 1200 ppm): 0%; Fruition rate ([2]; 1300 ppm): 0%; Fruition rate ([2]; 1400 ppm): 0%; Fruition rate ([2]; 1500 ppm): 0%; concentration in which harmful effect of a medicine occurred [2]: ≥ 900 ppm; the highest concentration not showing harmful effects of a medicine [3]: 800 ppm; the lowest concentration showing inhibiting effect [3]: 100 ppm; Fruition rate ([4]; 20 ppm): 0%; Fruition rate ([4]; 40 ppm): 13%; Fruition rate ([4]; 60 ppm): 31%; Fruition rate ([4]; 80 ppm): 61%; Fruition rate ([4]; 100 ppm): 99%; Fruition rate ([4]; 200 ppm): 98%; Fruition rate ([4]; 300 ppm): 93%; Fruition rate ([4]; 400 ppm): 88%; Fruition rate ([4]; 500 ppm): 85%; Fruition rate ([4]; 600 ppm): 84%; Fruition rate ([4]; 700 ppm): 74%; Fruition rate ([4]; 800 ppm): 71%; Fruition rate ([4]; 900 ppm): 62%; Fruition rate ([4]; 1000 ppm): 0%; Fruition rate ([4]; 1100 ppm): 0%; Fruition rate ([4]; 1200 ppm): 0%; Fruition rate ([4]; 1300 ppm): 0%; Fruition rate ([4]; 1400 ppm): 0%; Fruition rate ([4]; 1500 ppm): 0%; concentration in which harmful effect of a medicine occurred [4]: ≥ 900 ppm

Question: Which results are given for `O=S(=O)([O-])[O-].[Cu+2]` [CuSO4]?
Answer: Fruition rate ([1]; 1 day after full blooming): 0; Fruition rate ([1]; 1 day before blooming): 0; Fruition rate ([1]; 2 days after full blooming): 0; Fruition rate ([1]; 2 days before blooming): 0; Fruition rate ([1]; 3 days before blooming): >37%; Fruition rate ([1]; 4 days before blooming): >74%; Fruition rate ([1]; 5 days before blooming): >86%; Fruition rate ([1]; 6 days before blooming): >91%; Fruition rate ([1]; 7 days before blooming): >91%; Fruition rate ([1]; full blooming): 0; Fruition rate ([2]; 20 ppm): 0%; Fruition rate ([2]; 40 ppm): 0%; Fruition rate ([2]; 60 ppm): 11%; Fruition rate ([2]; 80 ppm): 39%; Fruition rate ([2]; 100 ppm): 70%; Fruition rate ([2]; 200 ppm): 76%; Fruition rate ([2]; 300 ppm): 88%; Fruition rate ([2]; 400 ppm): 85%; Fruition rate ([2]; 500 ppm): 77%; Fruition rate ([2]; 600 ppm): 73%; Fruition rate ([2]; 700 ppm): 73%; Fruition rate ([2]; 800 ppm): 52%; Fruition rate ([2]; 900 ppm): 31%; Fruition rate ([2]; 1000 ppm): 21%; Fruition rate ([2]; 1100 ppm): 11%; Fruition rate ([2]; 1200 ppm): 0%; Fruition rate ([2]; 1300 ppm): 0%; Fruition rate ([2]; 1400 ppm): 0%; Fruition rate ([2]; 1500 ppm): 0%; concentration in which harmful effect of a medicine occurred [2]: ≥ 800 ppm; the highest concentration not showing harmful effects of a medicine [3]: 700 ppm; the lowest concentration showing inhibiting effect [3]: 100 ppm; Fruition rate ([4]; 20 ppm): 0%; Fruition rate ([4]; 40 ppm): 15%; Fruition rate ([4]; 60 ppm): 41%; Fruition rate ([4]; 80 ppm): 59%; Fruition rate ([4]; 100 ppm): 97%; Fruition rate ([4]; 200 ppm): 92%; Fruition rate ([4]; 300 ppm): 88%; Fruition rate ([4]; 400 ppm): 85%; Fruition rate ([4]; 500 ppm): 77%; Fruition rate ([4]; 600 ppm): 73%; Fruition rate ([4]; 700 ppm): 73%; Fruition rate ([4]; 800 ppm): 44%; Fruition rate ([4]; 900 ppm): 16%; Fruition rate ([4]; 1000 ppm): 7%; Fruition rate ([4]; 1100 ppm): 0%; Fruition rate ([4]; 1200 ppm): 0%; Fruition rate ([4]; 1300 ppm): 0%; Fruition rate ([4]; 1400 ppm): 0%; Fruition rate ([4]; 1500 ppm): 0%; concentration in which harmful effect of a medicine occurred [4]: ≥ 800 ppm
